The results in this text go back to patent US12276670B2, “Methods for identifying and treating adrenomyeloneuropathy (AMN)” (The General Hospital Corporation, priority 2017, dated 2025).

Entries after “also recorded” stand apart in the source; their conditions may differ.

Data set [1] has as its system neurons differentiated from ReN cells. The data set is described as follows: PS exposure by Annexin V-FITC binding. The data set is classed as cell-based, human. As to conditions: treatment for 3 days at 10 μM or 20 μM. As to the method:
The most significant biochemical change caused by ABCD1 mutations is increased VLCFA levels including free fatty acid and LPC (in particular C24:0 and C26:0) in plasma and tissues. In order to determine whether neurons exposed to high VLCFA levels have PS exposure on their surfaces, neurons differentiated from ReN cells were treated with both C26:0 free fatty acid (FFA C26:0) and LPC C26:0 and then determined the PS exposure by Annexin V-FITC binding. Immortalized hNPC cell line ReNcell VM (ReN) was used to differentiate into neurons according to a published protocol (Kim et al., 2015). Simply, ReN cells were grown in proliferation medium (DMEM/F12 (Gibco/Life Technologies) with 2 μg/ml heparin (stock, STEMCELL Technologies), 2% B27 (Life Technologies), 20 ng/ml EGF, 20 ng/ml bFGF and 1% of 100× penicillin/streptomycin (Gibco/Life Technologies) until confluency. For differentiation, 3×10^4 cells were seeded on matrigel-coated (1:100 dilution in DMEM/F12) 8 well chamber slides and grown in differentiation medium (DMEM/F12 (Gibco/Life Technologies) with 2 μg/ml heparin (stock, STEMCELL Technologies), 2% B27 (Life Technologies) and 1% of 100× penicillin/streptomycin (Gibco/Life Technologies) for 2-3 weeks prior to co-culture with microglia.

Data set [2] shares this test system. The data set is described as follows: Cleaved-caspase and Tuj 1 staining after VLCFA treatment. As to conditions: for cleaved-caspase staining (late apoptosis): differentiated ReN neurons after FFA C26:0 or LPC C26:0 treatment. The class given is cell-based, human.
The test system of data set [3] is MFGE8. In words: MFGE8 gene expression in N9 microglia. The data set is classed as cell-based. As to conditions: 30 uM, 3 days. As for the experimental part:
(§1) In order to learn whether microglial changes seen in vivo were primary or secondary to axon degeneration, microglia was isolated from postnatal mice and molecular changes in unstimulated conditions was assessed as well as after LPS challenge. Microglia cultures were prepared as previously described (Tamashiro et al., 2012). Briefly, mixed glial cultures (˜95% astrocytes, ˜5% microglia) were prepared from the brain tissue of 1-3 day old mice. The tissue was trypsinized with 0.05% trypsin, and the cells were resuspended in glia complete medium DMEM (Lonza) supplemented with 10% fetal bovine serum (FBS), 100 IU/ml penicillin, 100 μg/ml streptomycin and 2 mM L-Glutamine. After 10-14 days in culture, microglia were isolated from the mixed glial cultures by the shake-off procedure. Specifically, loosely attached microglia were obtained from an incubator shaker at 250 rpm for 2 h at 37° C., the cell-containing medium was centrifuged at 1100 rpm for 3 minutes to collect microglia for subsequent culture. N9 microglia cells were cultured in RPMI 1640 medium supplemented with 10% FBS.
After observing an unexpected increase of phagocytosis-related biomarkers at the tissue level, whether gene expression of these markers would be altered in vitro was examined. Total RNA from cells or tissues were isolated using Qiagen RNeasy Mini Kit (Qiagen). First-strand cDNA synthesis used 100 ng random primer (Life Technologies), […], 10 mM dNTP, and 200 units of reverse transcriptase (Life Technologies) per 20 μL reactions. PCRs were performed in duplicates in a 25 μl final volume by using SYBR Green master mix from Applied Biosystems (Life Technologies). The data was analyzed by calculating the delta Ct value between the tested gene and an internal control.
In order to examine whether VLCFA has any effect on MFGE8 expression, microglial cell lines (N9) were treated with 30 uM FFA C26:0, LPC C16:0 and LPC C26:0 separately for 3 days.

Data set [4] concerns MFGE8. In words: MFGE8 gene expression in primary isolated microglia. The data set is classed as cell-based, mouse. As to conditions: primary microglia from WT and Abcd1−/− mice, 15 uM. As for the experimental part:
as §1
After observing an unexpected increase of phagocytosis-related biomarkers at the tissue level, whether gene expression of these markers would be altered in vitro was examined. […] The data was analyzed by calculating the delta Ct value between the tested gene and an internal control. […]

Data set [5] relates to MFGE8. In words: MFGE8 protein secretion in primary isolated microglia (ELISA). As to conditions: primary microglia from WT and Abcd1−/− mice, 15 uM. The data set is classed as cell-based, mouse. As to the method:
as §1
An ELISA assay detected 2-fold higher MFGE8 protein secretion into media by Abcd1−/− microglia (FIG. 4D, P<0.05; MFGE8 and TNFa level in culture medium and spinal cord homogenate were measured using MFGE8 and TNFa ELISA kit (R&D) according to manufacturer's instructions). […]

Data set [6] concerns differentiated ReN cells in the co-culture system with primary Abcd1−/− microglia. The data set is described as follows: Co-culture of differentiated neurons with primary Abcd1−/− microglia. The class given is cell-based. As to the method: As a bridging protein, MFGE8 tightly binds to exposed phosphatidylserine on surface membranes of stressed neurons and opsonizes them for phagocytosis. Indeed, in co-culture, Abcd1−/− microglia increased phagocytosis of phosphatidylserine-exposing neurons in both unstimulated and LPS-challenged conditions (FIG. 4E). For the co-culture of microglia and neurons, isolated microglia were seeded on top of differentiated neurons and co-cultured for 4 days with or without supplementation of VLCFA. For VLCFA supplementation, hexacosanoic acid (FFA C26:0) and Lysophosphatidylcholine (LPC) C16:0 and C26:0 (Avanti polar lipid) were solubilized in 50 mg/ml Methyl-β-cyclodextrin to make 3 mM stock solution and then supplemented into culture medium to reach designated concentration with Methyl-β-cyclodextrin as vehicle control. […] Tuj-1 immunofluoresece and degenerated axons were quantified in each group.
The most significant biochemical change caused by ABCD1 mutations is increased VLCFA levels including free fatty acid and LPC (in particular C24:0 and C26:0) in plasma and tissues. In order to determine whether neurons exposed to high VLCFA levels have PS exposure on their surfaces, neurons differentiated from ReN cells were treated with both C26:0 free fatty acid (FFA C26:0) and LPC C26:0 and then determined the PS exposure by Annexin V-FITC binding. […]

The test system of data set [7] is primary microglia from Abcd1−/− mice. The data set is described as follows: Microglial phagocytosis assay (PS exposing SH-SY5Y neurons seeded on microglia). As to conditions: primary Abcd1−/− microglia pretreated 12 hours; MFGE8 at 50 ng/ml; 4 hours co-culture. The data set is classed as cell-based, mouse. As to the method:
To validate the impact of MFGE8, primary microglia from Abcd1−/− mice were pretreated with either MFGE8 (50 ng/ml) or MFGE8 antibody for 12 hours and then phagocytosis was assessed by performing a microglial phagocytosis assay. Microglia were seeded in 8-well chamber (7×10^4/well in complete medium) and cultured for 24 hours. SH-SY5Y cells were treated with 100 uM H2O2 for 12 hours to induce phosphatidylserine (PS) exposure on cell surface. Floating SH-Sy5Y cells were then collected by centrifuge at 1000 g for 3 minutes, resuspended in serum free medium and stained with 3 μM CMTPX (red)(Life Science Technologies)(1:1000 dilution) for 30 minutes. A portion of the floating cells was subjected to Annexin V-FITC staining to confirm the exposure of phosphatidylserine. The remnant was washed twice and seeded (same amount as microglia) on top of the microglial layer. After 4 hours co-culture, cells were washed with PBS and fixed with 4% paraformaldehyde (PFA) for 15 min at room temperature. Microglia were then stained with IBA1 antibody (Wako) overnight followed by Alexa Fluor-488 conjugated second antibody. For quantification, 5 random images were taken from each chamber well using a confocal microscope (Zeiss). The total number of phagocytosed particles as well as cell-sized particles was counted and divided by microglia cell number.

Consider `CCCCCCCCCCCCCCCCCCCCCCCCCC(=O)O` [FFA C26:0, hexacosanoic acid], for which the “PS exposure on cell surface (Annexin V-FITC)” value in data set [1] is “did not induce significant PS exposure”. Also, in data set [2], the “cleaved-caspase staining (late apoptosis)” value is reported as “did not reveal a notable positive signal”. In the data set on MFGE8 [3], the “MFGE8 mRNA expression” value is recorded as “did not have an effect”.
As for `CCCCCCCCCCCCCCCC(=O)OC[C@@H](O)COP(=O)([O-])OCC[N+](C)(C)C` [LPC C16:0, Lysophosphatidylcholine (LPC) C16:0], the “MFGE8 mRNA expression” value with MFGE8 [3] is “did not have an effect”.
With `CCCCCCCCCCCCCCCCCCCCCCCCCC(=O)OC[C@@H](O)COP(=O)([O-])OCC[N+](C)(C)C` [LPC C26:0, Lysophosphatidylcholine (LPC) C26:0], in data set [1], the “PS exposure on cell surface (Annexin V-FITC)” value is “remarkable dose dependent PS exposure; also recorded: showed exposure of phosphatidylserine (PS)”. Also, the “cleaved-caspase staining (late apoptosis)” value in data set [2] is given as “did not reveal a notable positive signal; also recorded: little late apoptosis”. In data set [2] (differentiated ReN neurons after LPC C26:0 treatment), the “neuronal marker Tuj 1 morphology” value is “did not show significant morphological changes”. The “MFGE8 mRNA expression” value in the data set on MFGE8 [3] is on record as “significantly increased”. Moreover, the “MFGE8 expression at mRNA level” value in the data set with MFGE8 [4] is recorded as “significant increases”. In addition, the “MFGE8 expression at protein level (secretion)” value in the data set with MFGE8 [5] is “significant increases”. In addition, the “decrease of Tuj 1 expression” value in data set [6] (15 uM LPC C26:0, co-culture 4 days) came out at 20%. Further, the “axon degeneration (quantification of degenerated axons)” value in data set [6] (co-culture system with LPC C26:0 supplementation, with or without MFGE8 antibody) is on record as “increased axon degeneration”.

B1: MFGE8: milk fat globule EGF factor 8 protein, supplemented to microglia at 50 ng/ml (protein, UniProt Q08431 24-387, looked up)
Lactadherin: LDICSKNPCHNGGLCEEISQEVRGDVFPSYTCTCLKGYAGNHCETKCVEPLGLENGNIANSQIAASSVRVTFLGLQHWVPELARLNRAGMVNAWTPSSNDDNPWIQVNLLRRMWVTGVVTQGASRLASHEYLKAFKVAYSLNGHEFDFIHDVNKKHKEFVGNWNKNAVHVNLFETPVEAQYVRLYPTSCHTACTLRFELLGCELNGCANPLGLKNNSIPDKQITASSSYKTWGLHLFSWNPSYARLDKQGNFNAWVAGSYGNDQWLQVDLGSSKEVTGIITQGARNFGSVQFVASYKVAYSNDSANWTEYQDPRTGSSKIFPGNWDNHSHKKNLFETPILARYVRILPVAWHNRIALRLELLGC
B1: in data set [7], the “microglial phagocytosis of PS exposing neurons” value is on record as “significant increase; also recorded: dramatically increased”.
